In patent US20130029981A1, “COMPOUNDS, COMPOSITIONS, AND METHODS FOR CONTROLLING BIOFILMS” (Katholieke Universiteit Leuven, priority 2009, published 2013):

Legend:
[1] = tested on: Pseudomonas aeruginosa PA14; assay: Static peg assay for prevention of biofilm formation (Calgary device, crystal violet); format: cell-based
Procedure, shortened: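 P. aeruginosa PA14 overnight TSB culture diluted 1:100 into broth with two-fold compound dilutions, biofilms grown 24 h static on polystyrene pegs of a Calgary device at 25 °C (TSB 1/20), 30 °C or 37 °C (CFA and/or LBNS). Biofilm quantified by crystal violet, extracted with 30% acetic acid, A570.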

[2] = tested on: Pseudomonas aeruginosa PA14; assay: Antibacterial activity: growth inhibition, OD600 after 24 h (GIC50); format: cell-based; conditions: 25° C.
Method: Starting from a 40 mM stock solution of each compound in DMSO, two-fold serial dilutions in 100 μl liquid broth per well were prepared in dublicate in sterile transparant microtiter plates. The broth used was TSB 1/20 for measurements at 25° C. and CFA (in case of Salmonella Typhimurium) and LBNS (in case of Pseudomonas aeruginosa) for measurements at 37° C. Subsequently an overnight culture of the bacteria (S. Typhimurium ATCC14028 or P. aeruginosa PA14) was diluted 1/200 into the corresponding liquid broth and 100 μl was added to each well of the microtiterplate resulting in a total amout of 200 μl medium per well. After an incubation of 24 hours the optical density at 600 nm of each well was determined with a microtiter plate reader (VERSAmax, Molecular Devices).
Evaluation of antibacterial-inhibitory activity of some substituted imidazo[1,2-a]pyrimidinium bromide salts of the invention was carried out by diluting an overnight culture of Salmonella Typhimurium ATCC14028 or Pseudomonas aeruginosa PA141/200 into liquid medium. 200 μl of the diluted overnight culture was added to each well of a microtiterplate together with different concentrations of the test compound (1/2 dilution series of the compound). After an incubation of 24 hours the optical density at 600 nm of each well was determined with a microtiter plate reader. […] The GIC50 values of representative compounds for antibacterial activity are shown in the following Tables 9 and 10 (wherein Ph stands for phenyl, Me for methyl): […]

[3] = 25° C., Table 12, read-out: IC50 (biofilm formation)
[4] = 25° C., Table 14, read-out: IC50 biofilm inhibition
[5] = 37° C., read-out: IC50 (biofilm formation)
[6] = 25° C., Table 18, read-out: P. aeruginosa IC50 (biofilm formation)

Row | Structure (SMILES) | IC50 [1, 3] | IC50 [1, 4] | IC50 [1, 5] | IC50 [2] | IC50 [1, 6] | also measured
1 | OC1(c2ccc(I)cc2)C[n+]2cccnc2N1Cc1ccccc1.[Br-] (stereo not shown) [Compound 73] | 8.61 µM | 8.61 µM | 175 µM | 51.7 µM | – | –
2 | OC1(c2ccc(Cl)cc2)C[n+]2cccnc2N1C1CCCCC1.[Br-] (stereo not shown) [Compound 64] | 4.94 µM | 4.94 µM | – | 61.3 µM | 10 µM | –
3 | CCCCCCN1c2nccc[n+]2CC1(O)c1ccc([N+](=O)[O-])cc1.[Br-] (stereo not shown) [Compound 34] | – | – | – | – | – | IC50 ([1]; 25° C., 24 hours, Table 15, read-out: (2) IC50 (biofilm inhibition)): 10.9 µM; IC50 ([1]; 25° C., Table 16, read-out: P. aeruginosa IC50 (biofilm formation)): 12.4 µM
4 | O=[N+]([O-])c1ccc(C2(O)C[n+]3cccnc3N2C2CCCCCCCCCCC2)cc1.[Br-] (stereo not shown) [Compound 69] | 6.32 µM | 6.32 µM | 18.2 µM | 8.89 µM | 6.9 µM | –
5 | OC1(c2ccc(-c3ccccc3)cc2)C[n+]2cccnc2N1C1CCCC1.[Br-] (stereo not shown) [R1=Cyclopentyl, R3=4-biphenylyl, R4=H, 1-cyclopentyl-2-hydroxy-2-(4-biphenylyl)-2,3-dihydro-1H-imidazo[1,2-a]pyrimidin-4-ium bromide] | – | – | – | – | – | IC50 ([1]; Pseudomonas aeruginosa, PA14, 25° C., Table 12, read-out: IC50 (biofilm formation)): 1.57 µM; IC50 ([1]; Pseudomonas aeruginosa, PA14, 25° C., Table 14, read-out: IC50 biofilm inhibition): 1.57 µM; IC50 ([1]; Pseudomonas aeruginosa, PA14, 37° C., read-out: IC50 (biofilm formation)): 62.1 µM; IC50 ([2]; Pseudomonas aeruginosa, PA14): 27.1 µM
